# pEC50: −log10 of the molar value. Structures can show the parent of a compound that is named as a salt.
# Target: RIPK1 (recombinant GST-RIPK1 kinase domain, residues 1-327) (Homo sapiens (Human), UniProt Q13546)
# Assay: RIPK1-ADP-Glo Enzymatic Assay
# Assay type: biochemical
# Settings: ADP-Glo; 25 nM GST-RIPK1, 300 μM ATP; assay lower limit ~25 nM; read-out: RIPK1 V0 Ec50
# Outline: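 Compounds titrated 10-pt 1:3 from 100000 nM top (1% DMSO); 30 min preinc w/ 25 nM Sf21-expressed enzyme, RT; start w/ ATP (300 μM final) + dephos-MBP (3 μM); 150 min; ADP-Glo lumi; 4-param fit → EC50.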
# Chain of RIPK1 (recombinant GST-RIPK1 kinase domain, residues 1-327) (Q13546 1-327): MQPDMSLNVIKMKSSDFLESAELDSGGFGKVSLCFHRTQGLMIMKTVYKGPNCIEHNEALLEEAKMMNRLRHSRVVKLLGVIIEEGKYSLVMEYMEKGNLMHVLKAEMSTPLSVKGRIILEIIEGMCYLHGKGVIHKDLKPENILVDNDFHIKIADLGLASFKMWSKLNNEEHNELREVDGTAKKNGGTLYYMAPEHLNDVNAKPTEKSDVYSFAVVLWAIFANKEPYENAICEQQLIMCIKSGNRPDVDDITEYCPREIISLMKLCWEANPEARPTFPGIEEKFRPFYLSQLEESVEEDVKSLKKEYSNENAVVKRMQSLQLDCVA
smiles,measurement,value
"N#CC1(c2cccc(C(=O)N3CCC4(CC3)O[C@@H]3CC[C@@H](c5cc(F)cc(F)c5)N3C4=O)c2)CC1 [Example 6.71, 1-{3-[(5′S,7a′R)-5′-(3,5-difluorophenyl)-3′-oxotetrahydro-1H,3′H-spiro[piperi-dine-4,2′-pyrrolo-[2,1-b][1,3]oxazole]-1-carbonyl]phenyl} cyclopropane-1-car-bonitrile]",pEC50,> 7.60
"N#Cc1cccc(N2CCC3(CC2)O[C@@H]2CC[C@@H](c4ccccc4)N2C3=O)n1 [Example 4.29, 6-[(5′S,7a′R)-3′-oxo-5′-phenyltetrahydro-1H,3′H-spiro[piperidine-4,2′-pyrrolo[2,1-b] [1,3]oxazol]-1-yl]pyridine-2-carbonitrile]",pEC50,> 7.60
"O=C1N2[C@@H](CC[C@H]2c2ccccc2F)OC12CN(Cc1ccccc1)C2 [Example 22.7, (5′S,7a′R)-1-benzyl-5′-(2-fluorophenyl)tetrahydro-3′H-spiro[azetidine-3,2′-pyrrolo[2,1-b][1,3]oxazol]-3′-one]",pEC50,6.99
"N#Cc1cnc(N2CCC3(CC2)O[C@@H]2CC[C@@H](c4ccccc4)N2C3=O)n2ncnc12 [Example 4.241, 5-[(5′S,7a′R)-3′-oxo-5′-phenyltetrahydro-1H,3′H-spiro[piperidine-4,2′-pyrrolo[2,1-b] [1,3]oxazol]-1-yl][1,2,4]triazolo[1,5-c] pyrimidine-8-carbonitrile]",pEC50,> 7.60
"O=C(c1cccc(F)c1)N1CCC2(CC1)O[C@@H]1CC[C@@H](c3cccc(F)c3)N1C2=O [Example 6.116, (5′S,7a′R)-1-(3-fluoro-benzene-1-carbonyl)-5′-(3-fluorophenyl)-tetrahydro-3′H-spiro [piperidine-4,2′-pyrrolo[2,1-b][1,3]oxazol]-3′-one]",pEC50,> 7.60
"O=C1N2[C@@H](CC[C@H]2c2cc(F)cc(F)c2)OC12CCN(c1cccc3ccnn13)CC2 [Example 15.2, (5′S,7a′R)-5′-(3,5-difluorophenyl)-1-(pyrazolo[1,5-a]pyridin-7-yl)tetrahydro-3′H-spiro[piperidine-4,2′-pyrrolo[2,1-b]oxazol]-3′-one, TFA]",pEC50,> 7.60
"N#Cc1cnc(N2CCC3(CC2)O[C@@H]2CC[C@@H](c4cc(F)cc(F)c4)N2C3=O)s1 [Example 4.101, 2-((5′S,7a′R)-5′-(3,5-difluorophenyl)-3′-oxotetrahydro-3′H-spiro[piperidine-4,2′-pyrrolo[2,1-b]oxazol]-1-yl)thiazole-5-carbonitrile]",pEC50,7.39
"Cc1ncc([C@@H]2CC[C@H]3OC4(CCN(c5ccnc6ccnn56)CC4)C(=O)N32)cc1F [Example 4.89, (5′S,7a′R)-5′-(5-fluoro-6-methylpyridin-3-yl)-1-(pyrazolo[1,5-a]pyrimidin-7-yl)tetrahydro-3′H-spiro[piperidine-4,2′-pyrrolo[2,1-b]oxazol]-3′-one]",pEC50,7.53
"O=C1N2[C@@H](CC[C@H]2c2ccccc2F)OC12CN(c1cc(Cl)ncn1)C2 [Example 4.107, (5′S,7a′R)-1-(6-chloropyrimidin-4-yl)-5′-(2-fluorophenyl)tetrahydro-3′H-spiro[azetidine-3,2′-pyrrolo[2,1-b]oxazol]-3′-one]",pEC50,7.00
"O=C(c1ccc(F)cc1F)N1CCC2(CC1)O[C@@H]1CC[C@@H](c3cc(F)cc(F)c3)N1C2=O [Example 5.5, (5′S,7a′R)-1-(2,4-difluoro-benzene-1-carbonyl)5′-(3,5-difluorophenyl)tetra-hydro-3′H-spiro[piperi-dine-4,2′-pyrrolo[2,1-b] [1,3]oxazol]-3′-one]",pEC50,> 7.60
"O=C1N2[C@@H](CC[C@H]2c2cccc(F)c2)OC12CCN(c1ccnc3ccnn13)CC2 [Example 4.123, (5′S,7a′R)-5′-(3-fluorophenyl)-1-(pyrazolo[1,5-a]pyrimidin-7-yl)tetrahydro-3′H-spiro[piperidine-4,2′-pyrrolo[2,1-b] [1,3]oxazol]-3′-one]",pEC50,> 7.60

# Source: patent US12180226B2, “Spirotricycle RIPK1 inhibitors and methods of uses thereof” (Merck Sharp & Dohme LLC, priority 2021, dated 2024)
